Results on 14 compounds are retold here after patent US6117976A, “Manufacture and use of polypeptides tagged using binding molecules” (Medical Research Council, priority 1993, dated 2000).

The target in series [1] is T1, calmodulin (Homo sapiens, UniProt P0DP23). The series can be described thus: Native gel autoradiography of 2-[125I]-melatonin with calmodulin. The conditions noted are these: 1 μCi 2-[125I]-melatonin, 15% polyacrylamide gel, 0.5 mM CaCl2, no SDS. In kind it is binding. The procedure: In order to assess this, 1 μl calmodulin (1 mg/ml) was incubated with 1 μCi 2-[^125 I]-melatonin in 9 μl TBSC and run on a 15% polyacrylamide gel. The gel was as the running gel of Laemmli (Nature 1970 220 680-685), but with 0.5 mM CaCl2 and no SDS in both gel and buffer.

In series [2] the target is T1, calmodulin. Nature of the series: Native gel electrophoresis of fluoresceinated TAG peptides with calmodulin. In kind it is binding. To be noted: excess calmodulin, TBS 1 mM CaCl2, 15% native gel. An excerpt:
FIGS. 9A and 9B: Fluorescent and Coomassie blue detection of fluorescent peptide/calmodulin complexes. Native gel electrophoresis of calmodulin and fluoresceinated TAG1 (Track 1), calmodulin and fluoresceinated TAG2 (Track 2), calmodulin and fluoresceinated TAG3 (Track 3), and calmodulin and fluoresceinated TAG4 (Track 4). The gel was first imaged on a UV transilluminator and photographed (FIG. 9A) and then stained with Coomassie blue and photographed (FIG. 9B).
For peptide fluoresceination, 1 mg of each peptide was dissolved in 1 ml of 100 mM NaHCO3, pH 8.9. One volume of peptide was mixed with one volume of water and 2 volumes of 2 mM iodoacetamidofluorescein (Molecular Probes Inc.) in dimethylformamide. The reaction was allowed to proceed for 15 minutes then quenched by adding dithiothreitol to 10 mM final concentration. The fluoresceinated peptides were separated from unreacted fluorescein using a Millipore MEM-SEP cartridge column (TBS=loading and wash buffer; TBS+0.5 M NaCl=elution buffer).
A 20 μl reaction was set up containing ca. 0.4 μg of fluoresceinated peptide and 18 μg of calmodulin (Sigma) in TBS containing 1 mM CaCl2 (TBS is 50 mM Tris-HCl, pH 7.4, 100 mM NaCl in water).

Series [3] addresses T1, calmodulin. The conditions noted are these: 600 nM calmodulin, 50 nM fluorescein-labeled TAG3, 7 μM unlabelled peptide, on ice, up to 4 hrs.
Description: 600 nM calmodulin was pre-mixed in TBSC and 10% sucrose with 50 nM fluorescein-labeled TAG3 peptide. Aliquots were incubated on ice with a large excess (7 μM) unlabeled peptide for 0, 0.5, 1, 2, and 4 hrs, and analysed on a native 15% polyacrylamide gel (as in Laemmli, 1970 supra except with CaCl2 to 1 MM) in a Hoefer Mighty Small apparatus, and imaged with a cooled CCD-camera based fluorescent gel imaging system developed in collaboration with Confocal Technologies (Liverpool, UK) and Digital Pixel (Brighton, UK).
600 nM calmodulin was pre-mixed in TBSC and 10% sucrose with 50 nM fluorescein-labeled TAG3 peptide. Aliquots were incubated on ice with a large excess (7 μM) unlabelled peptide for 0, 0.5, 1, 2, and 4 hrs, and analysed on a native 15% polyacrylamide gel (as in Carr & Scott, 1992 supra) except with CaCl2 to 1 mM) in a Hoefer Mighty Small apparatus, and imaged with a cooled CCD-camera based fluorescent gel imaging system developed in collaboration with Confocal Technologies (Liverpool, UK) and Digital Pixel (Brighton, UK).
Series [4] has as its target T1, calmodulin. The conditions noted are these: cited from earlier work.
For series [5], the system named is scFv(HyHEL-10)-CAL. The series can be described thus: Native Phast gel analysis of scFv(HyHEL-10)-CAL and MBP-TAG1 interaction. In kind it is binding. As for the experimental part:
FIG. 8B: Homogeneous 20 Native Phast Gel (Pharmacia) for the analysis of scFv(HyHEL-10)-CAL and MBP-TAG1 interaction. Conditions as in FIG. 5, except the gel was stained with Coomassie. Lanes: 1, MBP-TAG1 (0.3 mg/ml); 2, scFv (HyHEL-10)-CAL (0.08 mg/ml); 3, scFv (HyHEL-10) (0.08 mg/ml)+MBP-TAG1 (0.3 mg/ml).
(§1) 2500 resonance units (RUs) of turkey egg lysozyme (TEL) (Sigma) were immobilised on a microsensor chip of a BIAcore machine (Pharmacia). A solution of […] (5 μg/ml) in TBSC was injected onto the chip (flow rate 5 μl/min), followed by injections of MBP-TAG1 (5 μg/ml), then 20 mM EGTA (to dissociate the complex) and then MBP (New England Biolabs 5 μg/ml). […] Conditions were as in Example 7 and FIG. 5, except the gel was stained with Coomassie. Lanes: 1, MBP-TAG1 (0.3 mg/ml); 2, scFv (HyHEL10)-CAL (0.08 mg/ml); 3, scFv (HyHEL-10) (0.08 mg/ml)+MBP-TAG1 (0.3 mg/ml).

The test system of series [6] is scFv(HyHEL-10)-CAL. In kind it is binding. As for the experimental part: FIG. 8A: Binding of scFv-CAL and MBP-TAG1 detected by surface plasmon resonance (Pharmacia Biacore). 2500 resonance units (RUs) of turkey egg lysozyme (TEL) (Sigma) were immobilized on a microsensor chip of a BIAcore machine (Pharmacia). A solution of […] (5 μg/ml) in TBSC was injected onto the chip (flow rate 5 μl/min), followed by injections of MBP-TAG1 (5 μg/ml), then 20 mM EGTA (to dissociate the complex) and then MBP (New England Biolabs 5 μg/ml).
Thus HEL was immobilised on the microsensor chip, and the chip saturated with scFv(HyHEL-10)-CAL.
as §1

For series [7] the following is noted: in vivo; cited from earlier work.
Series [8] relates to fluoresceinated TAG-3 peptide. Nature of the series: Band shift assay of alternative fusion partners with fluoresceinated TAG-3 peptide. The series is classed as binding. The conditions noted are these: 10 μM fluoresceinated TAG-3, TBSC, High-Density Phast Gel, native.
Description: 1 μl of purified scFv (D1.3)-CAL (Example 5), scFv(D1.3)-CAL(N-domain), scFv(D1.3)-CAL(C-domain), calmodulin or troponin C were incubated with 10 μM fluoresceinated TAG-3 peptide and 8 μl TBSC. The samples were run on a High-Density Phast Gel (Pharmacia) using native buffer strips, and gel imaged.
The mark [9] stands for this setting: Table 1, affinities of calmodulin-binding peptides.

“Also recorded” adds a separate entry of the source. Like-named read-outs stand apart in the source and are kept apart here. No end group written: not given here.

For `COc1ccc2[nH]c([125I])c(CCNC(C)=O)c2c1` [2-[^125 I]-melatonin], the “detection of calmodulin-melatonin complex on gel (radioactive band)” value on calmodulin [1] is on record as “no radioactive band was detected”.
Same read-out and setting: next, `COc1ccc2[nH]cc(CCNC(C)=O)c2c1` [Melatonin, melatonin]: “no complex is detected on band shift assays”.
For the compound C-EIKRAAA-INLKALAALAKKIL-IK-OH [TAG 4], the “peptide-calmodulin complex formation (comigration of fluorescent and coomassie bands)” value (shortened to “peptide-calmodulin complex formation”) at calmodulin [2] is reported as “stable complex with calmodulin”.
In the case of “C-EIKRAAA-INLKALAALAKKIL-IKRKRQQ-NH2 [TAG 3]”, the “displacement of fluorescent peptide from calmodulin by unlabelled peptide” value at calmodulin [3] is reported as “not significantly displaced from the calmodulin even after four hours competition”. In addition, the “peptide-calmodulin complex formation” value on calmodulin [2] is on record as “the upper of these that has bound peptide”.
On to “C-EIKRAAA-INLKALAALAKKIL-NH2 (CEIKRAAAINLKALAALAKKIL-NH2) [TAG 1]”, for which, in the series with calmodulin [2], the “peptide-calmodulin complex formation” value is on record as “stable complex with calmodulin”.
As for C-EIKRAAA-INLKALAALAKKIL-OH [TAG 2], the “peptide-calmodulin complex formation” value on calmodulin [2] is reported as “stable complex with calmodulin”.
Take “IKPAKRMKFKTVCYLLVQLMHCRKMFKA-NH2 [AC-28]”: the Kd with calmodulin [4] (setting [9]) is 2 nM.
Regarding INLKALAALAKKIL-NH2 [Mastoparan], the Kd in the series with calmodulin [4] (setting [9]) was 0.3 nM; with calmodulin [4] (binding to calmodulin, Malencik and Anderson, 1983), 0.3 nM. Also, in the series with calmodulin [4] (association constant for calmodulin), the Ka was 3.3e+09 M⁻¹.
In the case of “KRRAIGFKKLAEAVKFSAKLMGQAMAKRVK-NH2 [NO-30]”, the Kd with calmodulin [4] (setting [9]) was 2 nM.
Turning to “MBP-TAG1: maltose binding protein with the TAG1 peptide appended at the C-terminus (CEIKRAAAINLKALAALAKKIL)”, the “stable complex with scFv calmodulin fusion by gel electrophoresis” value in the series with scFv(HyHEL-10)-CAL [5] is “form a stable complex”. Besides, the “binding to chip saturated with scFv(HyHEL-10)-CAL” value with scFv(HyHEL-10)-CAL [6] (5 μg/ml in TBSC) is given as “shown to bind to the chip”. In addition, the “dissociation of bound protein by EGTA” value in the series on scFv(HyHEL-10)-CAL [6] (20 mM EGTA) was “could be dissociated by addition of EGTA”.
In the case of “QILWFRGLNRIQTQIRVVNAFRSS-NH2 [Ca++ pump]”, the Kd with calmodulin [4] (setting [9]) is 10 nM.
Turning to calmodulin, in series [7], the excretion result was “rapidly excreted in the urine”, the immunogenicity result is listed as “poorly immunogenic”, the organ accumulation entry is reported as “does not accumulate selectively in any organ” and the toxicity entry is listed as “not toxic”. In series [8], the “complex formation with TAG-3 (fluorescent band)” value is recorded as “observed”.
For the compound maltose binding protein [MBP], in the series with scFv(HyHEL-10)-CAL [6], the “binding to chip saturated with scFv(HyHEL-10)-CAL” value is on record as “not”.
Consider troponin C, for which the “complex formation with TAG-3 (fluorescent band)” value in series [8] was “observed; also recorded: binds well”.

A word on the Kd: it is the constant that tells how readily two partners part at equilibrium.
